Experimental data reported in patent US20250204553A1, “FEED AND METHODS FOR CONTROLLING HEARTWORM INFECTIONS IN A MAMMAL” (In the Bowl Animal Health, Inc., priority 2022, published 2025).

Legend:
Dirofilaria immitis [1] = assay: Efficacy of monepantel administered per os to dogs for treatment and control of Dirofilaria immitis; format: in vivo; details: all 12 dogs; daily oral 0.083 mg/kg and 0.83 mg/kg up to Day 179; inoculated with 50 L3 D. immitis on Day -28 or Day 0; counted on or after Day 180; expected result
[2] = in vivo; cited from earlier work
Dirofilaria immitis [3] = assay: Efficacy of moxidectin administered per os to dogs for treatment and control of Dirofilaria immitis; format: in vivo; details: all 12 dogs; daily oral 0.8 μg/kg and 1.6 μg/kg up to Day 179; inoculated with 50 L3 D. immitis on Day -28 or Day 0; counted on or after Day 180; expected result

Molecule | heartworms recovered (Dirofilaria immitis [1]) | terminal half-life [2] | heartworms recovered (Dirofilaria immitis [3])
C[C@](C#N)(COc1cc(C#N)ccc1C(F)(F)F)NC(=O)c1ccc(SC(F)(F)F)cc1 [monepantel, N-[(2S)-2-cyano-1-[5-cyano-2-(trifluoromethyl)phenoxy]propan-2-yl]-4-(trifluoromethylsulfanyl)benzamide] | 0 | – | –
ivermectin | – | 43.2 h | –
CO/N=C1\C[C@]2(C[C@@H]3C[C@@H](C/C=C(\C)C[C@@H](C)/C=C/C=C4\CO[C@@H]5[C@H](O)C(C)=C[C@@H](C(=O)O3)[C@]45O)O2)O[C@H](/C(C)=C/C(C)C)[C@H]1C [moxidectin] | – | approximately 13.9 days | 0
